Test results taken from PubChem BioAssay AID2060496 (Molecular Pharmacology Branch, DTP, NCI, 2025).
pIC50: −log10 of the molar value.

System: 276233-004-R-J1-PDC complex spheroid viability
Assay: Anticancer human tumor 276233-004-R-J1-PDC patient-derived colon adenocarcinoma cell line growth inhibition [GQUAD]
Conditions: for pIC50: curve of first compound; for viability, T/C: stronger effect = lower value
Method in brief: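 Viability of tumor cells grown as complex spheroids with endothelial and stromal cells, exposed to drug combinations. Top concentration at or near clinical Cmax (else 10 microM), diluted in half-log increments.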
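Also: spheroids exposed to drugs for seven days.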
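For viability, T/C in this document: 100% = DMSO vehicle control viability.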

With `Cc1[nH]c2ccccc2c1CCNCc1ccc(/C=C/C(=O)NO)cc1` + CN(C)c1ccc(Nc2c3ccc(NC(=O)CCN4CCCC4)cc3nc3cc(NC(=O)CCN4CCCC4)ccc23)cc1 the pIC50 (second compound 0.0316 µM) was 6.75, the pIC50 (second compound 0.1 µM) was 6.77 and the pIC50 (second compound 0.316 µM) was 6.78. The pIC50 (second compound 1 µM) was 7.32, the pIC50 (second compound 3.16 µM) was over 9.00 and the pIC50 (second compound 10 µM) was over 9.00. The viability, T/C (second compound 0.0316 µM, first compound 0.000999 µM) was 99.1%, the viability, T/C (second compound 0.0316 µM, first compound 0.00316 µM) was 79% and the viability, T/C (second compound 0.0316 µM, first compound 0.00999 µM) was 80.2%. The viability, T/C (second compound 0.0316 µM, first compound 0.0316 µM) was 84%, the viability, T/C (second compound 0.0316 µM, first compound 0.0999 µM) was 77.5% and the viability, T/C (second compound 0.0316 µM, first compound 0.316 µM) was 23.2%. It also gave a viability, T/C (second compound 0.1 µM, first compound 0.000999 µM) of 87.7%, a viability, T/C (second compound 0.1 µM, first compound 0.00316 µM) of 90.7% and a viability, T/C (second compound 0.1 µM, first compound 0.00999 µM) of 60.1%. For the same compound, the viability, T/C (second compound 0.1 µM, first compound 0.0316 µM) was 71.3%, the viability, T/C (second compound 0.1 µM, first compound 0.0999 µM) was 79% and the viability, T/C (second compound 0.1 µM, first compound 0.316 µM) was 17.2%. It also gave a viability, T/C (second compound 0.316 µM, first compound 0.000999 µM) of 57.8%, a viability, T/C (second compound 0.316 µM, first compound 0.00316 µM) of 78.7% and a viability, T/C (second compound 0.316 µM, first compound 0.00999 µM) of 59.6%. It also gave a viability, T/C (second compound 0.316 µM, first compound 0.0316 µM) of 50%, a viability, T/C (second compound 0.316 µM, first compound 0.0999 µM) of 85% and a viability, T/C (second compound 0.316 µM, first compound 0.316 µM) of 29.6%. It also gave a viability, T/C (second compound 1 µM, first compound 0.000999 µM) of 58.2%, a viability, T/C (second compound 1 µM, first compound 0.00316 µM) of 54.2% and a viability, T/C (second compound 1 µM, first compound 0.00999 µM) of 47.9%. For the same compound, the viability, T/C (second compound 1 µM, first compound 0.0316 µM) was 64.3%, the viability, T/C (second compound 1 µM, first compound 0.0999 µM) was 38.9% and the viability, T/C (second compound 1 µM, first compound 0.316 µM) was 21.8%. The viability, T/C (second compound 3.16 µM, first compound 0.000999 µM) was 45.3%, the viability, T/C (second compound 3.16 µM, first compound 0.00316 µM) was 47.9% and the viability, T/C (second compound 3.16 µM, first compound 0.00999 µM) was 42.6%. For the same compound, the viability, T/C (second compound 3.16 µM, first compound 0.0316 µM) was 40.3%, the viability, T/C (second compound 3.16 µM, first compound 0.0999 µM) was 28.1% and the viability, T/C (second compound 3.16 µM, first compound 0.316 µM) was 8.05%. The viability, T/C (second compound 10 µM, first compound 0.000999 µM) was 29.1%, the viability, T/C (second compound 10 µM, first compound 0.00316 µM) was 39.6% and the viability, T/C (second compound 10 µM, first compound 0.00999 µM) was 38.8%. For the same compound, the viability, T/C (second compound 10 µM, first compound 0.0316 µM) was 29.3%, the viability, T/C (second compound 10 µM, first compound 0.0999 µM) was 34% and the viability, T/C (second compound 10 µM, first compound 0.316 µM) was 3.25%.
